Patent US20210330756A1, “Acetylation of Miro1” (University of South Carolina, priority 2020, published 2021)

Columns and labels:
[1] = tested on: growth cones of DRG neurons; assay: Growth cone retraction after bath-applied growth inhibitors; type: cell-based, rat; conditions: 10 μM TubA
Text: MAG and CSPGs are more often tested as surface-bound substrates than with the bath applications used here. Thus, we tested whether bath application of growth inhibitors would cause growth cone retraction in a manner similar to surface-bound inhibitors. […] RhoA activation is a well-known downstream mediator for the growth-inhibitory effects of both MAG and CSPGs (Fujita and Yamashita, 2014), so we tested whether the RhoA/ROCK pathway contributes to the impact of aggregan on mitochondria distribution in growth cones.
MAG or Aggrecan exposures were performed as bath application or on coated substrates. For bath application, dissociated DRGs were cultured for 48 h and treated with 25 μg/ml of MAG-Fc (R&D Systems; 538-MG), 25 μg/ml Fc control (R&D Systems; 110-HG), or 10 μg/ml of Aggrecan (Sigma-Aldrich; A1960) for 4 h. Cultures were pretreated with either Ca^2+ chelator BAPTA-AM (3 μM; Sigma-Aldrich; A1076), ROCK inhibitor Y27632 (10 μM; Sigma-Aldrich; SCM075), HDAC6 inhibitor TubA (10 μM; R&D Systems; 6270), Thapsigargin (1 μM; Sigma-Aldrich; T9033), Rho Activator II (1 μg/ml; Cytoskeleton; CNO3), or equivalent volume DMSO 30 min before MAG-Fc, Aggrecan, or controls. For substrate-bound experiments, adult DRGs were cultured on glass bottom dishes (Greiner) that were coated with 25 μg/ml Aggrecan in addition to the laminin/poly-D-lysine substrate.

[2] = tested on: sciatic nerve axonal mitochondria; assay: In vivo imaging of axonal mitochondrial transport in sciatic nerve; design: species or system mouse
Description: Together, these experiments indicate that HDAC6 activity impacts axonal mitochondrial transport in vitro and in vivo.
Sciatic nerves were exposed in live, isofluorane-anaesthetized animals (female C57BL6/J mice aged 41-42 d after birth) as previously reported (Gibbs et al., 2016; Sleigh and Schiavo, 2016). Briefly, 10-μ1 glass micropipettes (Drummond Scientific; 5-000-1001-X10) were pulled (Mohan et al., 2015) and used to inject 2 μl of 1.5 mM TubA or DMSO (Sigma-Aldrich; D2650) vehicle control in sterile saline (0.9% wt/vol) into the proximal aspect of the exposed sciatic nerve. 2 μM tetramethylrhodamine, ethyl ester, perchlorate (Thermo Fisher Scientific; T669), and 0.1% (wt/vol) bromophenol blue (Sigma-Aldrich; B5525) were included in the injected solution to label mitochondria and confirm successful injection beneath the perineurium, respectively.
Body temperature was maintained using a heat pad during surgery and drug incubation. Sciatic nerves were imaged from 20 to 90 min after injection using an inverted LSM 780 laser scanning microscope (Zeiss) Plan-Apochromat 63×/1.4 NA Oil DIC M27 objective within an environmental chamber prewarmed and set to 37° C. An area containing labeled axons was selected and imaged for 444-1,000 s at 100×digital zoom every ˜4 s (1,024×1,024 pixels, 0.5-μs pixel dwell time, 1% laser power). Four animals were imaged per day (two per treatment). Image series were converted into AVI files, and mitochondrial dynamics were assessed using Kinetic Imaging Software. Mitochondria were included in analyses when they could be tracked for at least five consecutive frames. At least 10 mitochondria (mean of 49.1) across at least three axons (mean of 4.38) per animal were tracked, and all analyses were performed blinded to treatment.

[3] = tested on: rat embryonic cortical neurons; conditions: 10 μM; cited from earlier work

## CN1CCc2c(c3ccccc3n2Cc2ccc(C(=O)NO)cc2)C1 [TubA, tubastatin]
[1]
  effect on aggrecan-induced growth cone retraction: prevented by application of TubA
[2]; retrogradely versus anterogradely moving, after TubA
  pausing of moving mitochondria: significantly increased pausing for retrogradely versus anterogradely moving mitochondria
[2]; sciatic nerve injection, 2 μl of 1.5 mM, in vivo imaging
  ratio of anterogradely to retrogradely moving axonal mitochondria: increased
[2]; sciatic nerve injection, in vivo imaging
  significance of antero/retrograde ratio and speed of movement vs vehicle control: neither this nor the speed of movement showed significant differences
[3]
  histone acetylation: no effect on histone acetylation
  levels of acetyl (Ac) α-tubulin: increases levels of acetyl (Ac) α-tubulin
